The format of series [1] is physicochemical. To be noted: glassy carbon, Ag/AgCl reference; for Reduction Potentials, 100 mV/sec: scan rate 100 mV/sec; for Reduction Potentials, 10,000 mV/sec: scan rate 10,000 mV/sec.
Series [2] has as its system NCI-H460 cells. Description: Antiproliferation assay (Alamar Blue), anoxia vs air. For orientation: Alamar Blue is a resazurin reagent that responds to reducing activity.
Series [3] has as its system H460 cell line. As to the kind of experiment: Anti-proliferation assay, hypoxia vs normoxia (Table 1A). The following applies: for pIC50: Homo sapiens; for HCR P: ratio of IC50 in normoxia and hypoxia.
For series [4], the system named is NCI-H460 cells. As to the kind of experiment: Antiproliferation assay - oxygen dependence. The class given is cell-based, human. The text has this:
. […] The calculated IC50 values (μM) are tabulated in Table Y1 (H460 cells) or Table Y2 (HT29 cells) below.

The subject of series [5] is mouse (MLM) liver microsomal proteins. It is filed as in vitro ADME. To be noted: Table 2B.
Series [6] deals with human H460 cells. As to the kind of experiment: Clonogenic survival assay, hypoxia vs normoxia (Table 1A). To be noted: for IC90: Homo sapiens.
The nature of series [7]: Plasma stability (Table 2B). To be noted: 30 min.
A short description of series [8]: in vivo. To be noted: CD-1, mouse, 20 mg/kg.
Series [9] has as its system NCI-H460 cells. As to the kind of experiment: Clonogenic assay - oxygen dependence. The following applies: Homo sapiens.
Setting [10] is: Homo sapiens, NCI-H460, 2 h, read-out: IC50 H460 Air, air, 2 h exposure.
The mark [11] stands for this setting: Homo sapiens, NCI-H460, 2 h, read-out: IC50 H460 Anoxia, anoxia, 2 h exposure.
The mark [12] stands for this setting: NCI-H460, read-out: Hypoxia P (proliferation IC50).
[13] abbreviates: NCI-H460, read-out: Normoxia P (proliferation IC50).
The mark [14] stands for this setting: Homo sapiens, NCI-H460, read-out: IC50 in H460 cells, 0.1% O2.
Where [15] appears, read: Homo sapiens, NCI-H460, read-out: IC50 in H460 cells, 0.6% O2.
Setting [16] is: Homo sapiens, NCI-H460, read-out: IC50 in H460 cells, 10% O2.
Setting [17] is: Homo sapiens, NCI-H460; read-out: IC50 in H460 cells, Air.
Where [18] appears, read: Homo sapiens, NCI-H460; read-out: IC50 in H460 cells, N2.
[19] abbreviates: Homo sapiens, NCI-H460, read-out: IC50 in H460 cells, Air.
Where [20] appears, read: Homo sapiens, NCI-H460, read-out: IC50 in H460 cells, N2.

pIC50: −log10 of the molar value. Read-outs that look alike come from different tables or passages of the source.

Consider `O=[N+]([O-])c1ncc[nH]1` [2-NO2-Imidazole, reference compound], for which, in [1], the “Reduction Potentials, 100 mV/sec” value was −634 mV and the “Reduction Potentials, 10,000 mV/sec” value is reported as −693 mV.
Consider `CN(CCCl)P(=O)(OCc1ncc([N+](=O)[O-])n1C)N(C)CCCl` [Compound 9], for which the pIC50 is below 4.00 in series [2] (setting [10]), below 5.00 in [2] (setting [11]), below 5.00 in series [3] (setting [12]) and below 4.00 in series [3] (setting [13]). Besides, the “HCR P” value in [3] is above 10.
Turning to `O=[N+]([O-])c1ccc(COP(=O)(N(CCCl)CCCl)N2CCCC2)o1` (stereo not shown) [Compound 11], the pIC50 was below 4.00 in series [2] (setting [10]), 5.28 in series [2] (setting [11]), 5.28 in series [3] (setting [12]) and below 4.00 in series [3] (setting [13]). For the same compound, the “HCR P” value in series [3] is reported as above 20.
For the compound `O=[N+]([O-])c1ccc(COP(=O)(N(CCCl)CCCl)N2CCOCC2)o1` (stereo not shown) [Compound 12], the pIC50 in [2] (setting [10]) is below 4.00; in [2] (setting [11]), 5.77; in series [3] (setting [12]), 5.77; in [3] (setting [13]), below 4.00. Moreover, the “HCR P” value in series [3] is listed as above 50.
Take `CC(C)N(CCCl)P(=O)(OCc1cnc([N+](=O)[O-])n1C)N(CCCl)C(C)C` [Compound 14]: the pIC50 is below 4.00 in [2] (setting [10]), 5.07 in series [2] (setting [11]), 5.07 in series [3] (setting [12]) and below 4.00 in series [3] (setting [13]). The “HCR P” value in series [3] is given as above 12.
On to `CCN(CCCl)P(=O)(OCc1cnc([N+](=O)[O-])n1C)N(CC)CCCl` [Compound 15], for which the pIC50 was 6.00 in series [2] (setting [10]), 7.10 in series [2] (setting [11]), 7.10 in [3] (setting [12]) and 6.00 in series [3] (setting [13]). Further, in [3], the “HCR P” value is 12.
Usually IC90 stands for the concentration needed for an effect of 90%. Turning to `Cn1c(COP2(=O)N(CCCl)CCCN2CCCl)cnc1[N+](=O)[O-]` [Compound 16], the pIC50 was 5.00 in series [4] (setting [14]); 5.00 in [4] (setting [15]); 4.00 in series [4] (setting [16]); below 4.00 in series [4] (setting [17]); 6.52 in series [4] (setting [18]); below 4.00 in [2] (setting [10]). The figures for the pIC50 in series [2] (setting [11]), in series [3] (setting [12]) and in series [3] (setting [13]) were 5.80, 5.80 and 4.00, respectively. Further, in [5], the “Metabolic stability (MLM) (% at 30 min)” value turned out to be 40%. Moreover, the “HCR P” value in [3] was determined as 60. Further, the IC90 in series [6] (NCI-H460, read-out: Hypoxia C (clonogenic IC90)) turned out to be 0.2 µM; in series [6] (NCI-H460, read-out: Normoxia C (clonogenic IC90)), 35 µM. In addition, the “HCR C” value in [6] (ratio of IC90 in normoxia and hypoxia) came to 175.
With `CN(CCCl)P(=O)(OCc1c(F)c(F)c(OCc2ncc([N+](=O)[O-])n2C)c(F)c1F)N(C)CCCl` [Compound 17], the pIC50 is 5.05 in series [2] (setting [10]), 6.00 in series [2] (setting [11]), 6.00 in series [3] (setting [12]) and 5.05 in series [3] (setting [13]). In addition, the “HCR P” value in [3] was determined as 9.
Consider `COc1cc(COP(=O)(N(C)CCCl)N(C)CCCl)ccc1OCc1cnc([N+](=O)[O-])n1C` [Compound 18], for which the pIC50 in series [2] (setting [10]) is 5.05; in series [2] (setting [11]), 5.47; in series [3] (setting [12]) it was 5.47; in [3] (setting [13]) it was 5.05. The “HCR P” value in series [3] amounted to 3.
For `Cn1c(COc2ccc(COP(N)(=O)N(CCCl)CCCl)cc2F)cnc1[N+](=O)[O-]` (stereo not shown) [Compound 22], the pIC50 in series [2] (setting [10]) is 4.80; in series [2] (setting [11]) it was 6.15; in [3] (setting [12]), 6.15; in series [3] (setting [13]) it was 4.80. Moreover, the “HCR P” value in [3] stood at 23.
Turning to `O=[N+]([O-])c1ccc(COP(=O)(NCCCl)NCCCl)s1` [Compound 26], the pIC50 is 5.52 in [4] (setting [14]); 5.22 in series [4] (setting [15]); 5.30 in [4] (Homo sapiens, NCI-H460, read-out: IC50 in H460 cells, 1% O2); 5.00 in series [4] (setting [16]); 4.40 in [4] (setting [19]); 6.52 in [4] (setting [20]). The pIC50 was 4.46 in series [2] (setting [10]), 7.00 in [2] (setting [11]), 7.00 in series [3] (setting [12]) and 4.46 in series [3] (setting [13]). In addition, the “Metabolic stability (MLM) (% at 30 min)” value in [5] turned out to be 56%. Also, in [7], the “Plasma stability (% at 30 min)” value was found to be 85%. Further, the “HCR P” value in series [3] came to 350.
On to `Cn1c(COc2ccc(COP(=O)(NCCCl)NCCCl)cc2F)cnc1[N+](=O)[O-]` [Compound 27], for which the figures for the pIC50 in series [2] (setting [10]), in [3] (setting [12]) and in series [3] (setting [13]) were 4.00, 5.60 and 4.00, respectively. In addition, the “HCR P” value in series [3] is given as 40.
Consider `O=[N+]([O-])c1ccc(COCOP(=O)(NCCCl)NCCCl)o1` [Compound 31], for which the pIC50 is below 4.00 in [2] (setting [10]), 4.08 in series [2] (setting [11]), 4.08 in series [3] (setting [12]) and below 4.00 in series [3] (setting [13]). Besides, the “HCR P” value in series [3] is recorded as above 1.
On to `Cn1c(COP(=O)(NCCCl)NCCCl)nc(Br)c1[N+](=O)[O-]` [Compound 32], for which the pIC50 in series [2] (setting [10]) was 4.00; in series [2] (setting [11]), 4.30; in series [3] (setting [12]) it was 4.30; in series [3] (setting [13]), 4.00. Also, in [3], the “HCR P” value came to 2.
Broadly, the AUC is concentration integrated over time. In general, Cmax refers to the peak of the concentration-time curve. One may read the Tmax as the time from dosing to the highest level. Usually half-life stands for the time needed for the level to fall by half in the phase considered. A high value points to slow loss. As to `C[C@H](CCl)NP(=O)(N[C@H](C)CCl)OCc1cnc([N+](=O)[O-])n1C` [Compound 37], the pIC50 in series [4] (setting [15]) was 4.60; in series [4] (setting [17]) it was below 4.00; in [4] (setting [18]), 6.30; in series [2] (setting [10]) it was below 4.00; in series [2] (setting [11]) it was 6.44. Further, the AUC in series [8] (ip) worked out at 196 µg·h/mL; in [8] (iv), 172 µg·h/mL. Besides, the Cmax in series [8] (ip) turned out to be 12600 ng/mL; in series [8] (iv), 15000 ng/mL. The Tmax in series [8] (ip) and in [8] (iv) was 2 min each time. Besides, the half-life in [8] (ip) worked out at 23.2 min; in series [8] (iv), 9 min. Besides, the 90% effect concentration (IC90) in series [9] (NCI-H460, read-out: IC90 H460 0.6% O2) worked out at 5 µM; in [9] (NCI-H460, read-out: IC90 H460 Air), 90 µM; in series [9] (NCI-H460, read-out: IC90 H460 N2) it was 0.2 µM.
With `CC(OP(=O)(NCCBr)NCCBr)c1ccc([N+](=O)[O-])cc1` (stereo not shown) [Compound 78], in [1], the “Reduction Potentials, 100 mV/sec” value is −704 mV and the “Reduction Potentials, 10,000 mV/sec” value was −746 mV. Also, the pIC50 in series [2] (setting [10]) is below 4.00. Also, the pIC50 in series [2] (setting [11]) is below 4.00.
`CC(OP(=O)(NCCBr)NCCBr)c1ccc([N+](=O)[O-])s1` (stereo not shown) [Compound 88]: the pIC50 in [4] (Homo sapiens, NCI-H460, read-out: IC50 in H460 cells, 0.3% O2) is 6.30; in series [4] (setting [15]), 6.70; in series [4] (setting [19]), 6.30; in series [4] (setting [20]), 7.52; in series [2] (setting [10]) it was 6.28; in [2] (setting [11]), 7.52. Also, the “Reduction Potentials, 100 mV/sec” value in series [1] was −559 mV. Besides, the “Reduction Potentials, 10,000 mV/sec” value in series [1] is given as −629 mV.
For `Cc1csc(C(C)OP(=O)(NCCBr)NCCBr)c1[N+](=O)[O-]` (stereo not shown) [Compound 103], in series [1], the “Reduction Potentials, 10,000 mV/sec” value is −756 mV. Besides, the pIC50 was 5.70 in series [2] (read-out: IC50 H460 Air, air, 2 h exposure) and 7.70 in series [2] (read-out: IC50 H460 Anoxia, anoxia, 2 h exposure).
Take `Cn1c(COP2(=O)N(CCBr)CCN2CCBr)cnc1[N+](=O)[O-]` [Compound 108]: the pIC50 was below 4.00 in series [4] (setting [15]); below 4.00 in [4] (setting [19]); 6.00 in series [4] (setting [20]); below 4.00 in [2] (setting [10]); 5.96 in [2] (setting [11]). Also, in series [1], the “Reduction Potentials, 100 mV/sec” value was −614 mV. Moreover, the “Reduction Potentials, 10,000 mV/sec” value in [1] is listed as −593 mV.
